Test results as given in patent US20050107386A1, “Methods of treating diseases and disorders by targeting multiple kinases” (priority 2003, published 2005).

Test system: HCT-116 cells
Experiment: SCID mouse/HCT-116 xenograft model
Settings: for % Tumor Growth Inhibition: day 28; for TGD (500 mm^3): days to reach 500 mm^3; for TGD (1000 mm^3): days to reach 1000 mm^3

SMILES: CCc1c2c(nc3ccc(OC(=O)N4CCC(N5CCCCC5)CC4)cc13)-c1cc3c(c(=O)n1C2)COC(=O)[C@]3(O)CC.Cl [Camptosar, reference compound]
- TGD (days to reach 1000 mm^3) (Table 3, i.p. 25 mg/kg q4d): >12 days
- % Tumor Growth Inhibition (Table 3, i.p. 25 mg/kg q4d): 95.4%
- % Tumor Growth Inhibition (Table 5, i.p. 2.5 mg/kg q4d): 66%
- TGD (500 mm^3) (Table 5, i.p. 2.5 mg/kg q4d): >6 days
- TGD (1000 mm^3) (Table 5, i.p. 2.5 mg/kg q4d): >10 days
- % Tumor Growth Inhibition (Table 5, i.p. 10 mg/kg q4d): 90%
- TGD (500 mm^3) (Table 5, i.p. 10 mg/kg q4d): >13 days
- TGD (1000 mm^3) (Table 5, i.p. 10 mg/kg q4d): >10 days
